Blank lines part the entries; values can stand above or below the molecule they belong to. Calls of active or inactive are those of the source. No cut-off for these calls is given here.
Tests used:
[1] = test system: Mus musculus; test: Antitumor immunity in mouse MC38 cells implanted in C57BL/6J mouse assessed as increase in TNF-alpha level in injected tumor at 100 to 500 ug,IT administrated in right flank on day 0 measured after 4 hrs by mesoscale assay; type: functional, organism-based; details: MC-38, dose 100-500 µg
[2] = test system: Mus musculus; test: Antitumor immunity in mouse MC38 cells implanted in C57BL/6J mouse assessed as increase in IL-6 level in injected tumor at 100 to 500 ug,IT administrated in right flank on day 0 measured after 4 hrs by mesoscale assay; type: functional, organism-based; details: MC-38, dose 100-500 µg
[3] = test system: Mus musculus; test: Antitumor immunity in mouse MC38 cells implanted in C57BL/6J mouse assessed as increase in IFN-beta level in injected tumor at 100 to 500 ug,IT administrated in right flank on day 0 measured after 4 hrs by ELISA; type: functional, organism-based; details: MC-38, dose 100-500 µg
[4] = molecular target: Stimulator of interferon genes protein (Mus musculus, UniProt Q3TBT3); details: bmdc
Stimulator of interferon genes protein, sequence (Q3TBT3 whole entry, looked up, change not shown): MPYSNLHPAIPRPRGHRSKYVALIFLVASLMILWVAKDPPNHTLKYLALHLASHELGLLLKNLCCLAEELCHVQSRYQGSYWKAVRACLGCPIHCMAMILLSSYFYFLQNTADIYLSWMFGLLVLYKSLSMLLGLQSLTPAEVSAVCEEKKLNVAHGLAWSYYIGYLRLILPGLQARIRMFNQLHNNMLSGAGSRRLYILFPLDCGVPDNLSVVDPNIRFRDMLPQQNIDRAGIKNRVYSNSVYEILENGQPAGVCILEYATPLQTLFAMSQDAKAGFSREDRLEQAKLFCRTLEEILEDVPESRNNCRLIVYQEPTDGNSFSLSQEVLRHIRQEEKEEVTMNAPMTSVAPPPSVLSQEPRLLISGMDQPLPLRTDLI

[5] = Drug uptake in plasma of C57BL/6J mouse implanted with mouse MC38 cells assessed as drug concentration at 20 ug,IT administrated on right flank on day 0 measured upto 1 hr by LC-MS analysis; type: ADME, cell-free, MC-38; details: in vivo, other, dose 20 µg
[6] = Drug uptake in tumor of C57BL/6J mouse implanted with mouse MC38 cells assessed as drug concentration at 20 ug,IT administrated on left flank on day 0 measured upto 1 hr by LC-MS analysis; type: ADME, tissue-based, Neoplasm, MC-38; details: in vivo, other, dose 20 µg
[7] = Drug uptake in plasma of C57BL/6J mouse implanted with mouse MC38 cells assessed as drug concentration at 20 ug,IT administrated on left flank on day 0 measured upto 1 hr by LC-MS analysis; type: ADME, cell-free, MC-38; details: in vivo, other, dose 20 µg
[8] = Drug uptake in tumor of C57BL/6J mouse implanted with mouse MC38 cells assessed as drug concentration at 20 ug,IT administrated on right flank on day 0 measured upto 1 hr by LC-MS analysis; type: ADME, tissue-based, Neoplasm, MC-38; details: in vivo, other, dose 20 µg
[9] = test system: MC-38; test: Antitumor activity against mouse MC38 cells implanted in C57BL/6J mouse assessed as reduction in tumor growth on right flank at 20 ug,IT administrated in right flank on day 0, 3 and 7 measured after 15 days; type: functional, cell-based; details: dose 20.0 µg, time 15.0 day
[10] = test system: Mus musculus; test: Antitumor immunity in mouse MC38 cells implanted in C57BL/6J mouse assessed as increase in TNF-alpha level in injected tumor at 5 to 20 ug,IT administrated in right flank on day 0 measured after 4 hrs by mesoscale assay; type: functional, organism-based; details: MC-38, dose 5-20 µg
[11] = test system: B16-F10; test: Antitumor activity against mouse B16-F10 cells implanted in C57BL/6J mouse assessed as reduction in tumor growth at 4 ug,IT administered for day 0,3,7 followed by anti-mouse PD-1 antibody Mdx400 incubated for 28 days measured twice a week; type: functional; details: dose 4.0 µg, time 28.0 day
[12] = test system: Mus musculus; test: Antitumor immunity in mouse MC38 cells implanted in C57BL/6J mouse assessed as increase in IFN-beta level in injected tumor at 5 to 20 ug,IT administrated in right flank on day 0 measured after 4 hrs by ELISA; type: functional, organism-based; details: MC-38, dose 5-20 µg
[13] = test system: Mus musculus; test: Antitumor immunity in mouse MC38 cells implanted in C57BL/6J mouse assessed as increase in IL-6 level in injected tumor at 5 to 20 ug,IT administrated in right flank on day 0 measured after 4 hrs by mesoscale assay; type: functional, organism-based; details: MC-38, dose 5-20 µg
[14] = test system: MC-38; test: Antitumor activity against mouse MC38 cells implanted in C57BL/6J mouse assessed as reduction in tumor growth at 4 ug,IT administered for day 0,3,7 followed by anti-mouse PD-1 antibody Mdx400 incubated for 28 days measured twice a week; type: functional, cell-based; details: dose 4.0 µg, time 28.0 day
[15] = test system: MC-38; test: Antitumor activity against mouse MC38 cells implanted in C57BL/6J mouse assessed as reduction in tumor growth on right flank at 5 ug,IT administrated in right flank on day 0, 3 and 7 measured after 15 days; type: functional, cell-based; details: dose 5.0 µg, time 15.0 day

EC50 [4]: 6.23 µM
SMILES: Nc1nc2c(ncn2[C@@H]2O[C@@H]3CO[P@@](=O)(S)O[C@H]4[C@@H](O)[C@H](n5cnc6c(N)ncnc65)O[C@@H]4CO[P@@](=O)(S)O[C@@H]2C3)c(=O)[nH]1

EC50 [4]: 5.38 µM
SMILES: Nc1nc2c(ncn2[C@@H]2O[C@@H]3CO[P@@](=O)(S)O[C@H]4[C@H]5OC[C@]4(CO[P@@](=O)(S)O[C@@H]2[C@@H]3O)O[C@H]5n2cnc3c(N)ncnc32)c(=O)[nH]1

EC50 [4]: 1.55 µM
SMILES: Nc1nc2c(ncn2[C@@H]2O[C@@H]3CO[P@@](=O)(S)O[C@H]4[C@@H](F)[C@H](n5cnc6c(N)ncnc65)O[C@@H]4CO[P@@](=O)(S)O[C@@H]2[C@@H]3O)c(=O)[nH]1

EC50 [4]: > 100 µM
SMILES: Nc1nc2c(ncn2[C@@H]2O[C@@H]3COP(=O)(O)O[C@H]4[C@H]5OC[C@]4(COP(=O)(O)O[C@@H]2C3)O[C@H]5n2cnc3c(N)ncnc32)c(=O)[nH]1

Further lines, the molecule ahead of its results:

SMILES: Nc1nc2c(ncn2[C@@H]2O[C@@H]3COP(=O)(O)O[C@H]4[C@@H](O)[C@H](n5cnc6c(N)ncnc65)O[C@@H]4COP(=O)(O)O[C@@H]2[C@@H]3O)c(=O)[nH]1
Activity [1]: Active
Activity [2]: Active
Activity [3]: Active

SMILES: N.N.Nc1nc2c(ncn2[C@@H]2O[C@@H]3CO[P@@](=O)(S)O[C@H]4[C@H](F)[C@H](n5cnc6c(N)ncnc65)O[C@@H]4CO[P@@](=O)(S)O[C@@H]2[C@@H]3F)c(=O)[nH]1
Drug uptake [5]: Active
Drug uptake [6]: Active
Drug uptake [7]: Active
Drug uptake [8]: Active

SMILES: Nc1nc(=O)c2ncn([C@@H]3O[C@@H]4CO[P@@](=O)(S)O[C@H]5[C@H](F)[C@H](n6cnc7c(N)ncnc76)O[C@@H]5CO[P@@](=O)(S)O[C@@H]3[C@@H]4F)c2[nH]1
Activity [9]: Active
Activity [10]: Active
Activity [11]: Active
Activity [12]: Active
Activity [13]: Active
Activity [14]: Active
Activity [15]: Active

SMILES: Nc1nc2c(ncn2[C@@H]2O[C@@H]3CO[P@@](=O)(S)O[C@H]4C[C@H](n5cnc6c(N)ncnc65)O[C@@H]4CO[P@@](=O)(S)O[C@@H]2[C@@H]3F)c(=O)[nH]1
EC50 [4]: 3.21 µM

From ChEMBL document CHEMBL5154814, “Discovery of MK-1454: A Potent Cyclic Dinucleotide Stimulator of Interferon Genes Agonist for the Treatment of Cancer” (J Med Chem, 2022)
